# Measurements taken from PMC11358156 (Nature Cardiovascular Research, 2024).
# How the values were obtained:
# [1] = target: T1, fast skeletal myosin MYH1 (Oryctolagus cuniculus, UniProt A0A5F9CQ93); assay: myofibril ATPase assay; format: biochemical
# T1 construct: with sarcomere proteins (actin, troponin, tropomyosin) of the myofibril
# [2] = target: T2, β-cardiac myosin (β-MHC) (Bos taurus, UniProt Q9BE39); assay: co-crystal structure at […] Å with aficamten and vanadate; format: binding
# T2 construct: gene MYH7; motor domain (MD) in the pre-powerstroke state
# T2 sequence (Q9BE39 1-782): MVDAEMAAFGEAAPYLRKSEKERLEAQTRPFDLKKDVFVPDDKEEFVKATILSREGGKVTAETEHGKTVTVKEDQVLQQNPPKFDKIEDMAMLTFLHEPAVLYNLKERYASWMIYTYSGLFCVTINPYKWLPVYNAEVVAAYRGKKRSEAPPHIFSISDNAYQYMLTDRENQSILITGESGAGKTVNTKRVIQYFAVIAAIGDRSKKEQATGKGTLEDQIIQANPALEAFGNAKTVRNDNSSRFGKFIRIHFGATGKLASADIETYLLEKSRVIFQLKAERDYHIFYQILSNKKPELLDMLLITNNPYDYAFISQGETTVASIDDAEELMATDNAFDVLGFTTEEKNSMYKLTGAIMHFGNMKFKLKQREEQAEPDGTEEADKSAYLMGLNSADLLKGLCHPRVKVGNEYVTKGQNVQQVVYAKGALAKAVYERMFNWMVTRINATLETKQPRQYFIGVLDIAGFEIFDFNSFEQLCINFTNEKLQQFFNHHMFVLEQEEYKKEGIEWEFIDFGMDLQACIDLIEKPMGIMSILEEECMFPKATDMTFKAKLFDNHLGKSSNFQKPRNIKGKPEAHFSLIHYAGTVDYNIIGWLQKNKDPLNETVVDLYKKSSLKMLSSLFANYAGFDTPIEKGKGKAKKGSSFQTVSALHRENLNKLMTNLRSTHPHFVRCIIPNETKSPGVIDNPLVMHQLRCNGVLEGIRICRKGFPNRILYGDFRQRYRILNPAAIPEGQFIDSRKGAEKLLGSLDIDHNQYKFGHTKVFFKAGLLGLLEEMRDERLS
# T1 sequence (P02602 2-192): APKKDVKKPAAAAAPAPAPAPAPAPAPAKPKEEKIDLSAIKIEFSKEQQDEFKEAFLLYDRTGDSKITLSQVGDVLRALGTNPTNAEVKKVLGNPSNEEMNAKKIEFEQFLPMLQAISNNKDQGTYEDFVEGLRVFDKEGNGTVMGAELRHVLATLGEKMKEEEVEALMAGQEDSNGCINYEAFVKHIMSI
# T1 sequence (P02608 2-170, further chain): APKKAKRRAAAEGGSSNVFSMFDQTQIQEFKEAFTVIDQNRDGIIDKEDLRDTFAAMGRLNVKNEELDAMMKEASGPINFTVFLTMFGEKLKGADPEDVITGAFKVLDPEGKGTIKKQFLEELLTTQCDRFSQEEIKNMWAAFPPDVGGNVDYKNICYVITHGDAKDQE
# T1 sequence (A0A5F9CQ93 entry or part of it): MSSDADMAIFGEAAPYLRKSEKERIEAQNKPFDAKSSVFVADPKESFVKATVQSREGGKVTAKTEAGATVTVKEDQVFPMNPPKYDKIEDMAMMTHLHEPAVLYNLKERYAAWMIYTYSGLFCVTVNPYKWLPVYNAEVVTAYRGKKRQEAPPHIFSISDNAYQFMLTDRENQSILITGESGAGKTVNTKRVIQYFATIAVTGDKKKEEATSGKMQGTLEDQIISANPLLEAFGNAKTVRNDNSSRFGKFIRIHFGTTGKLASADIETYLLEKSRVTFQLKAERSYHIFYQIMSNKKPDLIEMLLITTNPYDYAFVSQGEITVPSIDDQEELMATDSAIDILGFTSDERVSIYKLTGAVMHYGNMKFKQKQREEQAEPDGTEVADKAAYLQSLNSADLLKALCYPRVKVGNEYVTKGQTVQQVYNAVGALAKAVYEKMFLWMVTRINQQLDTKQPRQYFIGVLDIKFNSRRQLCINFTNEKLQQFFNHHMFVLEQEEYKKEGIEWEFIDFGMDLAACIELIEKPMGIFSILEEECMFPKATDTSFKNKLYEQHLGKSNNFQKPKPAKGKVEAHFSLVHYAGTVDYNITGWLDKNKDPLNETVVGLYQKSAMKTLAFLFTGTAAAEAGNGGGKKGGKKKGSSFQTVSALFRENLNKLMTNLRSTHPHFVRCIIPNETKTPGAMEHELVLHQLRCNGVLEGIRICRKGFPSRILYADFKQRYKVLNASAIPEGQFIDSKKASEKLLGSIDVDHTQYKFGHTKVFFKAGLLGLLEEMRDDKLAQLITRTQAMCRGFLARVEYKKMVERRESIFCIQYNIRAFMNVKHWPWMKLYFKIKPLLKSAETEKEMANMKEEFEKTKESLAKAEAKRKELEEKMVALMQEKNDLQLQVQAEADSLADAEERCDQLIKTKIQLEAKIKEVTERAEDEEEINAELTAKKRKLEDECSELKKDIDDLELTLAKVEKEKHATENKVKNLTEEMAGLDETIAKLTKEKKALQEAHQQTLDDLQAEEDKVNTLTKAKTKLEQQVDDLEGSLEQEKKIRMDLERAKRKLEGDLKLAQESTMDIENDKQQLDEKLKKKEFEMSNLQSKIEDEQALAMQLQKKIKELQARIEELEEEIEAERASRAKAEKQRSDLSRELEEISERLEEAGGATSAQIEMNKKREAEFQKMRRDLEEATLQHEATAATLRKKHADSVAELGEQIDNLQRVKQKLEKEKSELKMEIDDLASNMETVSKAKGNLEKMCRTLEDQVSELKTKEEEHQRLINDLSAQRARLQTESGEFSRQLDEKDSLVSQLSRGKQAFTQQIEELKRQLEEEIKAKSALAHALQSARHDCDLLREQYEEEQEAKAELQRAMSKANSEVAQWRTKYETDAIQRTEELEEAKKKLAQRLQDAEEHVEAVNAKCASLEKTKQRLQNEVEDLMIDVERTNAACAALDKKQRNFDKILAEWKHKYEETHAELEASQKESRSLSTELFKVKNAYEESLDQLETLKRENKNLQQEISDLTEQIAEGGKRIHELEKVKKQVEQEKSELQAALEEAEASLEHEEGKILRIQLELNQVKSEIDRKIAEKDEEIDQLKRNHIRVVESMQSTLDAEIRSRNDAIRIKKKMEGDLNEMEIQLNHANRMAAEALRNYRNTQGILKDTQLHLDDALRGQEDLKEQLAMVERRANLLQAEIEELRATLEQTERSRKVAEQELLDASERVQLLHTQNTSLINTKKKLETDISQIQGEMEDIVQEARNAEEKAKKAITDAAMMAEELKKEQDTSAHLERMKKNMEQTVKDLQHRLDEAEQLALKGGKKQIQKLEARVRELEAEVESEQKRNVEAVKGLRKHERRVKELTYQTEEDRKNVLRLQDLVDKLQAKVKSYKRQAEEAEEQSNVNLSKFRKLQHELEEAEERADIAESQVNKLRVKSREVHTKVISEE
IC50 [1],SMILES,co-crystal structure at 2.33 Å with aficamten and vanadate [2]
6.52 µM,CCc1nc(-c2ccc3c(c2)CC[C@H]3NC(=O)c2cnn(C)c2)no1 [aficamten],
,Nc1ncnc2c1ncn2[C@@H]1O[C@H](COP(=O)(O)OP(=O)(O)O)[C@@H](O)[C@H]1O [ADP],the upper inset displays ADP and Vanadate and the lower inset displays aficamten
